Source: PubChem BioAssay (NCI)
Where “and” joins values, the source holds several entries; their conditions need not be identical. Identical values can stand only once.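 Test compounds were applied to cells in 96-well plates for 48 hours at 5 doses. GI50: concentration for 50% inhibition of growth. TGI is the concentration that stops growth completely.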

Tests used:
Assay in all cases: NCI tumour cell line growth inhibition, 48 h
MDA-N = test system: MDA-N
XF 498 CNS = test system: XF 498 CNS
KM20L2 colon = test system: KM20L2 colon
DMS 114 small cell lung = test system: DMS 114 small cell lung
RXF-631 renal = test system: RXF-631 renal
DMS 273 small cell lung = test system: DMS 273 small cell lung
SNB-78 CNS = test system: SNB-78 CNS
HOP-18 NSCLC = test system: HOP-18 NSCLC
LXFL 529 NSCLC = test system: LXFL 529 NSCLC

| SMILES | TGI (MDA-N) | TGI (XF 498 CNS) | TGI (KM20L2 colon) | TGI (DMS 114 small cell lung) | TGI (DMS 273 small cell lung) | TGI (SNB-78 CNS) | TGI (HOP-18 NSCLC) | TGI (LXFL 529 NSCLC) | other results |
| --- | --- | --- | --- | --- | --- | --- | --- | --- | --- |
| CC1(C)CC(=O)C(C(c2cccc(O)c2O)C2C(=O)CC(C)(C)CC2=O)C(=O)C1 | > 100 µM | – | – | – | – | – | – | – | – |
| O=C(CCc1nnc2s/c(=C\c3ccc4c(c3)OCO4)c(=O)n12)Nc1cc(Cl)ccc1Cl | – | > 100 µM | > 100 µM | > 100 µM | > 100 µM | > 100 µM | > 100 µM | > 100 µM | TGI (RXF-631 renal): > 100 µM |
| O=C(Nc1ccc(Cl)c(Cl)c1)C(=O)Nn1c(=S)[nH]c2ccccc2c1=O | – | > 100 µM | > 100 µM | > 100 µM | > 100 µM | > 100 µM | > 100 µM | > 100 µM | – |
| O=C1OC(c2ccccc2)C2CC3CC4(CCC3CN12)OCCO4 (centres undefined) | – | > 100 µM | > 100 µM | – | > 100 µM | > 100 µM | – | > 100 µM | TGI (RXF-631 renal): > 100 µM |
| CSC(=S)N/N=C/c1ccccc1 | > 100 µM | – | – | – | – | – | – | – | – |
| Cc1cc(Cl)ccc1NC(=O)/C(Cl)=C(/Cl)C(=O)O | 60.9 µM | – | – | – | – | – | – | – | – |
| CN(C)c1ccc(/C=C/C(=O)c2ccccc2)cc1Br | – | 31.2 µM | 57.6 µM | 36.9 µM | – | – | – | 28.8 µM | – |
| O=c1oc2c3ccc4ccccc4c3n(CCN3CCOCC3)c2c2ccccc12 | – | – | > 100 µM | > 100 µM | – | – | > 100 µM | > 100 µM | – |
| COCC1C(=O)c2cc3c(cc2C12C=CC1(C=C2)OCCO1)OCO3 (centres undefined) | – | 17.9 µM | 22.7 µM | 11.6 µM | 29.9 µM | – | – | 9.82 µM | TGI (RXF-631 renal): 27.7 µM |
| C[N+](C)(C)CCC(=O)N1C/C(=C\c2ccccc2)C(=O)/C(=C/c2ccccc2)C1 | 3.36 µM | 27.6 µM | 22 µM | > 22.3 µM | 5.33 µM | 22.9 µM | 26.7 µM | 13.5 µM | – |
| O=C(Nc1ccc(Cl)c(Cl)c1)C(=O)C(C1OC(=O)c2ccccc21)[N+](=O)[O-] (centres undefined) | > 100 µM | – | – | – | – | – | – | – | – |
| O=c1c2cc(Br)ccc2[nH]c(=S)n1-c1ccc(Br)cc1 | – | – | > 100 µM | > 100 µM | – | > 100 µM | > 100 µM | > 100 µM | – |
| COc1cc(C2c3cc4c(cc3[C@H](NC(=O)c3cccs3)C3COC(=O)[C@H]23)OCO4)cc(OC)c1OC (some centres undefined) | – | – | 0.0396 µM | – | > 100 µM | > 100 µM | > 100 µM | 47.2 µM | – |
| O=C(CC1(O)C(=O)Nc2c(Cl)cccc21)c1ccccc1 (centres undefined) | – | > 100 µM | > 100 µM | > 100 µM | > 100 µM | > 100 µM | > 100 µM | > 100 µM | – |
| CC1(C)CC(=O)C2=C(C1)NC(SSC1=C(C#N)C(c3ccc(Br)cc3)C3=C(CC(C)(C)CC3=O)N1)=C(C#N)C2c1ccc(Br)cc1 (centres undefined) | > 100 µM and 150 µg/mL | – | – | – | – | – | – | – | GI50 (MDA-N): 45.9 µg/mL |
| COc1ccc(C(=O)C(c2ccc(OC)cc2)C2C(=O)Oc3ccccc32)cc1 (centres undefined) | – | > 100 µM | > 100 µM | > 100 µM | > 100 µM | > 100 µM | > 100 µM | > 100 µM | GI50 (XF 498 CNS): > 100 µM; GI50 (KM20L2 colon): > 100000 nM; GI50 (DMS 114 small cell lung): > 100 µM; GI50 (DMS 273 small cell lung): > 100 µM; GI50 (LXFL 529 NSCLC): > 100 µM |
| CCOc1cc(C=O)c2c(ccc3ccc(OC)c(OC)c32)c1OC | > 100 µM | – | – | – | – | – | – | – | – |
| O=c1cc2n(c(=O)[nH]1)C1OC(C(O)C1O)[C@H]2CCO (some centres undefined) | – | – | > 100 µM | > 100 µM | > 100 µM | > 100 µM | – | > 100 µM | – |
| COc1ccc2nc3cc(Cl)ccc3c(NCCC(=O)OCC(O)C(O)C(O[C@H](C)C(=O)NC(C)C(=O)NC(CCC(N)=O)C(=O)OCc3ccccc3)C(C=O)NC(C)=O)c2c1 (some centres undefined) | – | 33.5 µM | 32.7 µM | – | 27.6 µM | 80.8 µM | – | 31.2 µM | TGI (RXF-631 renal): 36.9 µM |
| CC(=O)Oc1ccc2ccc(=O)oc2c1OC(C)=O | > 100 µM | – | – | – | – | – | – | – | – |
| C[C@]12CCC3[C@@H](C[C@H]4OC(=O)[C@@]35CCC(=O)C=C45)C1CCC2=O (some centres undefined) | – | > 100 µM | – | > 100 µM | – | – | > 100 µM | > 100 µM | – |

| SMILES | TGI (MDA-N) | TGI (XF 498 CNS) | TGI (KM20L2 colon) | TGI (DMS 114 small cell lung) | TGI (DMS 273 small cell lung) | TGI (SNB-78 CNS) | TGI (HOP-18 NSCLC) | TGI (LXFL 529 NSCLC) | other results |
| --- | --- | --- | --- | --- | --- | --- | --- | --- | --- |
| [N-]=[N+]=Nc1ccccc1-[n+]1noc([O-])c1Br | – | – | > 100 µM | > 100 µM | – | – | > 100 µM | > 100 µM | – |
| O=C1CSC(=S)N1c1ccc(F)cc1F | > 100 µM | – | – | – | – | – | – | – | – |
| Cc1cc2cc(Cl)ccc2nc1C(=O)c1ccccc1 | – | > 100 µM | > 100 µM | > 100 µM | > 100 µM | > 100 µM | > 100 µM | > 100 µM | TGI (RXF-631 renal): > 100 µM |
| Nc1nc(=O)n(C2CC(O)C(O)C(CO)O2)cc1F (centres undefined) | – | > 100 µM | > 100 µM | > 100 µM | – | > 100 µM | > 100 µM | > 100 µM | TGI (RXF-631 renal): > 100 µM |
| COC(=O)CSc1ccccc1 | – | > 100 µM | > 100 µM | – | > 100 µM | > 100 µM | > 100 µM | > 100 µM | TGI (RXF-631 renal): > 100 µM |
| O=C(c1ccccn1)c1nnn2ccccc12 | > 100 µM | – | – | – | – | – | – | – | – |
| COc1ccc2nc3cccc([N+](=O)[O-])c3c(NCCN(CCO)CCO)c2c1 | 0.0769 µM | – | – | – | – | – | – | – | GI50 (MDA-N): 0.023 µM |
| COC(=O)CCC(=O)CC(=O)C(=O)Nc1ccc(F)cc1 | – | – | > 100 µM | > 100 µM | > 100 µM | > 100 µM | > 100 µM | > 100 µM | – |
| N#Cc1ccc(/C=N\N2C(=O)c3ccccc3C2=O)cc1 | – | > 100 µM | > 100 µM | > 100 µM | > 100 µM | > 100 µM | > 100 µM | > 100 µM | – |
| C/C(=N\Nc1ccc2ccccc2n1)c1ccccc1O | > 100 µM | – | – | – | – | – | – | – | – |
| CNc1nnnn1C1OC(CO)C(O)C1O (centres undefined) | – | 83.4 µM | > 100 µM | > 100 µM | > 100 µM | > 100 µM | – | > 100 µM | TGI (RXF-631 renal): > 100 µM |
| COc1c(OC(C)=O)c(OC(C)=O)cc2c1-c1ccc(OC)c(=O)cc1C(NC(C)=O)CC2 (centres undefined) | – | 16.2 µM | 0.0795 µM | 0.121 µM | – | > 100 µM | > 100 µM | > 53 µM | TGI (RXF-631 renal): 18.2 µM |
| COc1ccc(C(=O)/C(=N/Nc2ccccc2)c2ccc(OC)cc2)cc1 | – | > 100 µM | 51.5 µM | > 100 µM | > 100 µM | > 100 µM | > 100 µM | > 100 µM | TGI (RXF-631 renal): > 100 µM |
| COc1ccc(CN2C(=O)C(Cc3cc(OC)c(OC)c(C)c3OC)N(C(=O)OC(C)C)C(=O)/C2=C/c2cc(OC)c(OC)c(C)c2OC)cc1 (centres undefined) | – | – | > 100 µM | > 100 µM | > 100 µM | – | > 100 µM | > 100 µM | TGI (RXF-631 renal): > 100 µM |
| O=C(O)CN(CC(=O)O)Cc1cc2c(cc1O)Oc1cc(O)c(CN(CC(=O)O)CC(=O)O)cc1C21OC(=O)c2ccccc21 | > 100 µM | – | – | – | – | – | – | – | – |
| Cn1c(=O)nc2n(-c3ccc(F)cc3)c3ccccc3nc-2c1=O | – | 34.3 µM | 48.7 µM | 28.6 µM | 36 µM | 42.2 µM | > 100 µM | > 100 µM | – |
| O=S(=O)(O)c1ccc(Cl)cc1.[Cd] | 68.9 µM | – | – | – | – | – | – | – | GI50 (MDA-N): 22.1 µM |
| CCOC(=O)C1c2[nH]c3ccccc3c2CCN1C(=O)c1ccco1 (centres undefined) | > 10 µM | – | – | – | – | – | – | – | – |
| COc1ccc2c(CC(=O)O)cc(=O)oc2c1 | > 100 µM | – | – | – | – | – | – | – | – |
| NC(=O)c1nnn(Cc2cc(Cl)c(C(=O)c3ccc(Cl)cc3)c(Cl)c2)c1N | > 46.9 µM | > 9.09 µM and 22.9 µM | > 9.09 µM and 17.4 µM | > 9.09 µM and 23.3 µM | > 9.09 µM and 21.2 µM | > 9.09 µM and 52.2 µM | > 9.09 µM and 36.4 µM | > 9.09 µM and 21.1 µM | GI50 (XF 498 CNS): 10.8 µM; GI50 (KM20L2 colon): 2790 nM; GI50 (DMS 114 small cell lung): 3.36 µM; TGI (RXF-631 renal): 53.9 µM; GI50 (DMS 273 small cell lung): 5.77 µM; GI50 (SNB-78 CNS): 19 µM; GI50 (HOP-18 NSCLC): 21.7 µM |
